This is an account of results in paper PMC12646587, “Advanced cardiotoxicity profiling using field potential imaging with UHD-CMOS-MEA in human iPSC-derived cardiomyocytes” (Toxicological Sciences, 2025).

Data set [1] concerns human iPSC-derived cardiomyocytes. The data set is described as follows: Field potential imaging (FPI) with UHD-CMOS-MEA, acute drug treatment. It is filed as cell-based. Conditions: for significant changes in any of the measured parameters (17 beat parameters): 10, 100 μM; for BR (beat rate): arrows = direction, – = none; for FPI (concentration at which changes were detected): changed parameters in brackets in each cell. The procedure:
Cryopreserved iCell Cardiomyocytes (FUJIFILM Cellular Dynamics, Inc.) were handled according to the supplier’s instructions. Cells were thawed in a 37 °C water bath for approximately 3 min and resuspended in iCell Thawing Medium to prepare a cell suspension at a final concentration of 1 × 10^7 cells/ml. A total of 10 µl of the cell suspension (100,000 cells per chip) was seeded directly onto the fibronectin-coated electrode area of each chip. Chips were incubated at 37 °C for 1 h to allow cell attachment, after which 1 ml of maintenance medium was gently added. […] Thereafter, medium exchanges were performed twice weekly by replacing half the medium volume.
Compounds were dissolved in culture medium containing 0.1% DMSO and administered cumulatively at increasing concentrations. Drug solutions were applied directly to the culture wells, and measurements were initiated 30 min after administration. […] All recordings were performed under spontaneous beating conditions, with no external pacing applied.
Recordings were performed at a sampling rate of 2 kHz, with a 2-min recording duration per condition. Data acquisition was controlled via proprietary software (Sony Semiconductor Solutions), and all raw signals were stored for offline analysis. All experiments were conducted in a humidified environment at 37 °C with 5% CO2, ensuring physiological conditions during both drug exposure and recording.
Spikes from hiPSC-derived cardiomyocytes were initially detected at each electrode using a voltage threshold of ±100 µV via BinViewer software (SCREEN Holdings Co., Ltd, Japan). The resulting spike data were then processed using a custom MATLAB (MathWorks, Natick, MA) script to perform beat detection. Firing count histograms were generated using a bin size of 0.5 ms, and peak detection within these histograms identified the timing and propagation duration of beats across the electrode array. For each electrode, the maximum spike amplitude and its corresponding peak timing were calculated to generate heat maps of field potential amplitude and activation timing. […]

Data set [2] has the same test system. In words: PCA of beat parameters: cardiotoxicity risk and mechanism classification. It is filed as cell-based. Conditions: for position in PCA space: across all tested concentrations. The procedure:
Each parameter set was evaluated for its ability to separate cardiotoxic and non-cardiotoxic compounds while maintaining minimal variance among negative controls. […] To assess cardiotoxicity, PCA scores of test compounds were plotted in the PC space, and their positions were compared with the SD-defined zones of the negative control group. Risk levels were classified as follows: Low risk (within 1 SD), medium risk (between 1 and 2 SD), and high risk (beyond 2 SD). Dose-dependent cardiotoxicity potential was estimated based on displacement from the negative control cluster.
To establish a risk classification framework, the standard deviation (SD) range of negative control compounds in PCA space was used to define 3 zones: Within the SD range (low risk), between 1 and 2 SD (medium risk), and beyond 2 SD (high risk) (Fig. 6B). Risk levels derived from PCA distribution were compared with IC50 and Cmax values reported for each compound and associated ion channels (Table 5).

The conditions of data set [3]: cited from earlier work.
Data set [4] concerns cardiomyocytes. As to conditions: BR20 (20% reduction in beat rate), cited from earlier work.
For another data set, the system named is NaV. As to conditions: cited from earlier work.
Data set [5] relates to cardiomyocytes. As to conditions: cited from earlier work.
A further data set concerns CaV. As to conditions: cited from earlier work.
Data set [6] relates to cardiomyocytes. Conditions: CTD90 ↑; ref Lu et al. 2019; cited from earlier work.
The next data set concerns hiPSC-CMs. The data set is described as follows: Conventional MEA recording (16-electrode Axion Maestro), acute exposure. It is filed as cell-based, human. The procedure:
To enable comparison with the UHD-CMOS-MEA recordings, conventional extracellular field potential recordings were performed using 16-electrode MEA plates on a commercially available MEA system (Axion Maestro, Axion Biosystems), in accordance with the general principles of the CiPA initiative. hiPSC-CMs were cultured and maintained on the MEA plates under spontaneous beating conditions at 37 °C. Recordings were conducted after 10 to 14 DIV, and data acquisition and beat detection were performed using the built-in algorithms of the AxIS software (Axion Biosystems), without the use of external pacing. […] Each compound was applied under acute exposure conditions, and field potential recordings were obtained for 30 min following drug administration.
To evaluate the measurement capabilities of a conventional MEA system, the same set of 7 compounds was tested using the 16-electrode Axion Maestro platform.

A further data set concerns hERG. Conditions: read-out: IC50 hERG; ref Clements et al. 2015; cited from earlier work. (The hERG channel carries a current that helps repolarise heart muscle cells.)
[7] abbreviates: acute, statistically significant change vs before.

Like-named read-outs stand apart in the source and are kept apart here.

What is called IC50 is the point on the concentration scale where inhibition reaches its midpoint.

Take `CC1(C)S[C@@H]2[C@H](NC(=O)[C@H](N)c3ccc(O)cc3)C(=O)N2[C@H]1C(=O)O` [Amoxicillin]: in [1] (acute), the “significant changes in any of the measured parameters (17 beat parameters)” value is listed as “did not induce significant changes”. Further, the “position in PCA space” value in [2] is listed as “remained near the origin”.

With `CC(=O)Oc1ccccc1C(=O)O` [Aspirin], the “significant changes in any of the measured parameters (17 beat parameters)” value in data set [1] (acute) is recorded as “did not induce significant changes”. Further, in [2], the “position in PCA space” value is recorded as “remained near the origin”.

Consider `CC(C)COCC(CN(Cc1ccccc1)c1ccccc1)N1CCCC1` (stereo not drawn) [Bepridil], for which the “Cmax Free” value in data set [3] (ref Crumb et al. 2016) was 0.032 ([Crumb et al. 2016]) μM. The Impedance assay with cardiomyocytes [4] (ref Guo et al. 2013) is 0.03 ([Guo et al. 2013]) (BR20) µM. Besides, the IC50 with NaV (ref Clements et al. 2015) was 2.3 µM. In addition, in [1] (setting [7]), the “Amp. CV” value is “decreased and ↓”; the “IBI (interbeat interval)” value is listed as “↓”; the “IBI CV” value was “decreased and ↓”; the “Veloc. CV” value was “decreased and ↓”. Moreover, the “Veloc. STV” value in data set [1] (setting [7]) is “↓”. In addition, the MEA assay in the data set with cardiomyocytes [5] (FPD, ref Kaneko et al. 2014) is 10 ([Kaneko et al. 2014]) (FPD) µM. Besides, in the data set with CaV (ref Clements et al. 2015), the IC50 is 1 µM. In addition, in the data set with cardiomyocytes [6], the HCA assay was 1.0 ([Lu et al. 2019]) (CTD90 ↑) µM. Further, in the data set with hiPSC-CMs (acute), the IBI entry is “statistically significant changes”; the “IBI variability, amplitude variability, conduction velocity variability and STV of conduction” value was “not detected”; the “magnitude of change in beat frequency and IBI” value was “less than 5%”.

In the case of `COc1ccc([C@@H]2Sc3ccccc3N(CCN(C)C)C(=O)[C@@H]2OC(C)=O)cc1` [Diltiazem], in data set [1] (setting [7]), the “IBI (interbeat interval)” value is “reduced and ↓”; the “BR (beat rate)” value was “increased and ↑”. In the data set on hiPSC-CMs (acute), the IBI entry was “shortened”, the beat frequency entry is “increased” and the “field potential (spike) amplitude” value is “significant reduction”.

Regarding `CC(C)N(CCC(C(N)=O)(c1ccccc1)c1ccccn1)C(C)C` (stereo not drawn) [Disopyramide], the “Cmax Free” value in data set [3] (ref Liu et al. 2021) is 0.7 ([Liu et al. 2021]) μM. Besides, the IC50 with NaV (ref Kramer et al. 2013) is 168 µM. Besides, in data set [1] (setting [7]), the “Amp. (amplitude)” value is listed as “↓”; the “Area (propagation area)” value is recorded as “↓”; the “IBI (interbeat interval)” value was “prolonged and ↑”; the “Veloc. (conduction velocity)” value is “↓”. The “BR (beat rate)” value in data set [1] (setting [7]) is listed as “↓”. Besides, the “FPI (concentration at which changes were detected)” value in data set [1] is recorded as 1 (BR) μM. Also, the MEA assay in the data set on cardiomyocytes [5] (FPDc10 (10% prolongation of FPDc), ref Ando et al. 2017) is 0.74 ([Ando et al. 2017]) (FPDc10) µM. The “FPI PCA (concentration at which changes were detected)” value in data set [2] turned out to be 1 µM. For the same compound, in the data set on CaV (ref Kramer et al. 2013), the IC50 was 1040 µM. In addition, the HCA assay in the data set on cardiomyocytes [6] was 10 ([Lu et al. 2019]) (CTD90 ↑) µM.

With `CC(C)NCC(O)c1ccc(O)c(O)c1` (stereo not drawn) [Isoproterenol], the Impedance assay in the data set with cardiomyocytes [4] (ref Doherty et al. 2015) is 0.01 ([Doherty et al. 2015]) (BR20) µM. The “average number of excitation origins per beat” value in [1] (10 nM, n = 6 wells) is 1.51 ± 0.02. The “total number of active electrodes” value in data set [1] (30 nM, Before: 149,149.4 ± 3,090.5) is 149,185.2 ± 2,882.6. Further, the beating frequency in data set [1] (30 nM, before 35.5 bpm) was 57.0 bpm. Moreover, in data set [1] (30 nM, n = 6 wells), the “average number of excitation origins per beat” value is recorded as 1.61 ± 0.02. Further, in data set [1] (setting [7]), the “Area STV” value was “decreased and ↓”; the “IBI (interbeat interval)” value is given as “↓”; the “BR (beat rate)” value was “increased and ↑”. The “FPI (concentration at which changes were detected)” value in data set [1] is 0.01 (BR, IBI) μM. The “FPI PCA (concentration at which changes were detected)” value in data set [2] is 0.01 µM.

Regarding `Cc1cccc(C)c1OCC(C)N` (stereo not drawn) [Mexiletine], the “Cmax Free” value in data set [3] (ref Crumb et al. 2016) was 2.5 ([Crumb et al. 2016]) μM. For the same compound, in the data set with cardiomyocytes [4] (ref Guo et al. 2013), the Impedance assay was 3.0 ([Guo et al. 2013]) (BR20) µM. The half-inhibitory concentration (IC50) with NaV (ref Clements et al. 2015) is 38 µM. Also, the “beat-wise variability in conduction speed” value in data set [1] (10 µM, post-treatment) is listed as “increased variability”. The compound further registered an average conduction velocity in [1] (10 µM, before 0.147 ± 0.004, n = 6 wells) of 0.109 ± 0.009 m/s. Moreover, in [1] (10 µM, before 4.9%), the “proportion of the area with conduction velocity exceeding 0.3 m/s” value is 0.6%. For the same compound, in [1] (10 µM, before 64.5 bpm), the beating frequency was 31.5 bpm. Besides, the “number of active electrodes” value in data set [1] (10 µM, before 115,437.9 ± 582.1) was 93,595.6 ± 11,323.1. Besides, in data set [1] (setting [7]), the “Amp. (amplitude)” value is “decreased and ↓”; the “Amp. CV” value was “increased and ↑”; the “Area (propagation area)” value was “decreased and ↓”; the “IBI (interbeat interval)” value is “increase and ↑”. In addition, in [1] (setting [7]), the “Veloc. (conduction velocity)” value is “decreased and ↓”; the “BR (beat rate)” value is “decreased and ↓”. The “FPI (concentration at which changes were detected)” value in [1] is 10 (BR, IBI, Ampl. Area, Veloc.) μM. The IC50 with hERG was 62.2 µM. The MEA assay with cardiomyocytes [5] (Spike amp., ref Clements and Thomas 2014) is 3.0 ([Clements and Thomas 2014]) (Spike amp.) µM. The “FPI PCA (concentration at which changes were detected)” value in data set [2] is 1 µM. Moreover, in the data set with CaV (ref Clements et al. 2015), the IC50 is 125 µM. For the same compound, the spontaneous beating result with hiPSC-CMs (10 μM) is “ceased entirely”. For the same compound, in the data set with hiPSC-CMs (acute), the IBI entry is “reached statistical significance”, the beat frequency entry was “reached statistical significance”, the conduction velocity entry is “not captured” and the “field potential (spike) amplitude” value is on record as “increase”. Moreover, in the data set with hiPSC-CMs (acute), the “magnitude of change in beat frequency and IBI” value was 2.2%; the propagation area entry is “not captured”.

With `C=C[C@H]1C[N@@]2CC[C@H]1C[C@@H]2[C@@H](O)c1ccnc2ccc(OC)cc12` [Quinidine], the “Cmax Free” value in data set [3] (ref Blinova et al. 2018) was 3 ([Blinova et al. 2018]) μM. Besides, the Impedance assay in the data set on cardiomyocytes [4] (ref Guo et al. 2013) was 10 ([Guo et al. 2013]) (BR20) µM. In data set [1] (setting [7]), the “Amp. (amplitude)” value was “decreased and ↓”; the “Area (propagation area)” value is “decreased and ↓”; the “Area CV” value was “increasing and ↑”; the “IBI (interbeat interval)” value was “increasing and ↑”. Besides, the “BR (beat rate)” value in [1] (setting [7]) is “decreased and ↓”. The MEA assay with cardiomyocytes [5] (FPD, ref Harris et al. 2013) was 0.3 ([Harris et al. 2013]) (FPD) µM. For the same compound, the “position on the PCA plot relative to mechanism-of-action groups” value in [2] (10 μM) is recorded as “plotted near compounds acting on hERG channels”. Moreover, in the data set on hiPSC-CMs (acute), the IBI result was “prolonged”, the beat frequency result is “reduced”, the conduction velocity result is given as “decreased” and the “field potential (spike) amplitude” value was “decreased”. Also, in the data set on hiPSC-CMs (acute), the propagation area entry was “decreased”.

As to `COc1ccc(CCN(C)CCCC(C#N)(c2ccc(OC)c(OC)c2)C(C)C)cc1OC` (stereo not drawn) [Verapamil], in data set [1] (setting [7]), the “Amp. CV” value is “↓”; the “Amp. STV” value is reported as “↓”; the “Dist Origin” value was “reduced and ↓”; the “Dist Origin STV” value is reported as “↓”. Besides, in data set [1] (setting [7]), the “IBI (interbeat interval)” value was “reduced and ↓”; the “No. of Origin” value is listed as “↓”; the “BR (beat rate)” value is “increased and ↑”. For the same compound, the “FPI (concentration at which changes were detected)” value in data set [1] was 0.003 (IBI, Amp. STV, Dist Origins, Dist Origins STV) μM. Moreover, in the data set with hiPSC-CMs (acute), the IBI entry is “shortened”, the beat frequency result is “increased” and the “field potential (spike) amplitude” value is listed as “decreasing trend”.
